The values that follow come from patent publication US9499492B2, “4-(ortho)-fluorophenyl-5-fluoropyrimidin-2-yl amines containing a sulfoximine group” (BAYER PHARMA AKTIENGESELLSCHAFT, priority 2012, dated 2016).

The target in series [1] is CDK2/CycE (Homo sapiens (Human), UniProt P24941). As to the kind of experiment: CDK2/CycE kinase assay (Method 2). Particulars: 10 μM ATP. The format is biochemical. The text has this: 2. CDK2/CycE Kinase Assay:
CDK2/CycE-inhibitory activity of compounds of the present invention was quantified employing the CDK2/CycE TR-FRET assay as described in the following paragraphs:
Recombinant fusion proteins of GST and human CDK2 and of GST and human CycE, expressed in insect cells (Sf9) and purified by Glutathion-Sepharose affinity chromatography, were purchased from ProQinase GmbH (Freiburg, Germany). As substrate for the kinase reaction biotinylated peptide biotin-Ttds-[…] (C-terminus in amid form) was used which can be purchased e.g. form the company JERINI Peptide Technologies (Berlin, Germany).
(§1) For the assay 50 nl of a 100 fold concentrated solution of the test compound in DMSO was pipetted into a black low volume 384 well microtiter plate (Greiner Bio-One, Frickenhausen, Germany), 2 μl of a solution of CDK2/CycE in aqueous assay buffer [50 mM Tris/HCl pH 8.0, 10 mM MgCl2, 1.0 mM dithiothreitol, 0.1 mM sodium ortho-vanadate, 0.01% (v/v) Nonidet-P40 (Sigma)] were added and the mixture was incubated for 15 min at 22° C. to allow pre-binding of the test compounds to the enzyme before the start of the kinase reaction. […] The concentration of CDK2/CycE was adjusted depending of the activity of the enzyme lot and was chosen appropriate to have the assay in the linear range, typical concentrations were in the range of 130 ng/ml.
(§2) The resulting mixture was incubated 1 h at 22° C. to allow the formation of complex between the phosphorylated biotinylated peptide and the detection reagents. Subsequently the amount of phosphorylated substrate was evaluated by measurement of the resonance energy transfer from the Eu-chelate to the streptavidine-XL. Therefore, the fluorescence emissions at 620 nm and 665 nm after excitation at 350 nm was measured in a TR-FRET reader, e.g. a Rubystar (BMG Labtechnologies, Offenburg, Germany) or a Viewlux (Perkin-Elmer). The ratio of the emissions at 665 nm and at 622 nm was taken as the measure for the amount of phosphorylated substrate.

The test system of series [2] is HeLa, human cervical tumour cells. Kind of series: Proliferation assay, HeLa (Method 3). The format is cell-based. Particulars: 4 days, crystal violet, read-out: Inhibition of HeLa cell proliferation IC50. Here is the method: (§3) After 24 hours, the cells of one plate (zero-point plate) were stained with crystal violet (see below), while the medium of the other plates was replaced by fresh culture medium (200 μl), to which the test substances were added in various concentrations (0 μM, as well as in the range of 0.001-10 μM; the final concentration of the solvent dimethyl sulfoxide was 0.5%). The cells were incubated for 4 days in the presence of test substances. Cell proliferation was determined by staining the cells with crystal violet: the cells were fixed by adding 20 μl/measuring point of an 11% glutaric aldehyde solution for 15 minutes at room temperature. After three washing cycles of the fixed cells with water, the plates were dried at room temperature. The cells were stained by adding 100 μl/measuring point of a 0.1% crystal violet solution (pH 3.0). After three washing cycles of the stained cells with water, the plates were dried at room temperature. The dye was dissolved by adding 100 μl/measuring point of a 10% acetic acid solution. The extinction was determined by photometry at a wavelength of 595 nm. The change of cell number, in percent, was calculated by normalization of the measured values to the extinction values of the zero-point plate (=0%) and the extinction of the untreated (0 μm) cells (=100%).

The test system of series [3] is A2780, human ovarian carcinoma cells. As to the kind of experiment: Proliferation assay, A2780 (Method 3). The format is cell-based. Particulars: A2780, 4 days, crystal violet, read-out: Inhibition of A2780 cell proliferation IC50. Here is the method: as §3
Series [4] in a line: In vitro metabolic stability in rat hepatocytes (Method 5). Type of series: in vitro ADME, Han Wistar rat. The conditions noted are these: 1 μM test compound. How it is done:
5. Investigation of In Vitro Metabolic Stability in Rat Hepatocytes
Hepatocytes from Han Wistar rats were isolated via a 2-step perfusion method. After perfusion, the liver was carefully removed from the rat: the liver capsule was opened and the hepatocytes were gently shaken out into a Petri dish with ice-cold Williams medium E (purchased from Sigma Aldrich Life Science, St Louis, Mo.). The resulting cell suspension was filtered through sterile gaze in 50 ml falcon tubes and centrifuged at 50×g for 3 min at room temperature. The cell pellet was resuspended in 30 ml WME and centrifuged through a Percoll® gradient for 2 times at 100×g. The hepatocytes were washed again with Williams' medium E (WMA) and resuspended in medium containing 5% Fetal calf serum (FCS, purchased from Invitrogen, Auckland, NZ). Cell viability was determined by trypan blue exclusion.
For the metabolic stability assay liver cells were distributed in WME containing 5% FCS to glass vials at a density of 1.0×10^6 vital cells/ml. The test compound was added to a final concentration of 1 μM. During incubation, the hepatocyte suspensions were continuously shaken and aliquots were taken at 2, 8, 16, 30, 45 and 90 min, to which equal volumes of cold acetonitrile were immediately added. Samples were frozen at −20° C. over night, after subsequently centrifuged for 15 minutes at 3000 rpm and the supernatant was analyzed with an Agilent 1200 HPLC-system with LCMS/MS detection.
The half-life of a test compound was determined from the concentration-time plot. From the half-life the intrinsic clearances were calculated. Together with the additional parameters liver blood flow, amount of liver cells in vivo and in vitro.

Series [5] addresses T1, CDK9/CycT1 (Homo sapiens (Human), UniProt P50750). Kind of series: CDK9/CycT1 kinase assay (Method 1a). Type of series: biochemical. Particulars: for IC50: 10 μM ATP; for Selectivity CDK9/CDK2: derived from Methods 1a. and 2.
From the text: 1a. CDK9/CycT1 Kinase Assay:
CDK9/CycT1-inhibitory activity of compounds of the present invention was quantified employing the CDK9/CycT1 TR-FRET assay as described in the following paragraphs:
Recombinant full-length His-tagged human CDK9 and CycT1, expressed in insect cells and purified by Ni-NTA affinity chromatography, were purchased from Invitrogen (Cat. No PV4131). As substrate for the kinase reaction biotinylated peptide biotin-Ttds-[…] (C-terminus in amid form) was used which can be purchased e.g. form the company JERINI Peptide Technologies (Berlin, Germany).
as §1, with “CDK9/CycT1” for “CDK2/CycE”, “1 μg/ml.” for “130 ng/ml.”
as §2, with “HTRF” for “TR-FRET”

In series [6] the target is T1, CDK9/CycT1. Kind of series: CDK9/CycT1 high ATP kinase assay (Method 1b). Type of series: biochemical. The conditions noted are these: 2 mM ATP. How it is done:
1b. CDK9/CycT1 High ATP Kinase Assay
CDK9/CycT1-inhibitory activity of compounds of the present invention at a high ATP concentration after preincubation of enzyme and test compounds was quantified employing the CDK9/CycT1 TR-FRET assay as described in the following paragraphs.
Recombinant full-length His-tagged human CDK9 and CycT1, expressed in insect cells and purified by Ni-NTA affinity chromatography, were purchase from Invitrogen (Cat. No PV4131). As substrate for the kinase reaction biotinylated peptide biotin-Ttds-[…] (C-terminus in amid form) was used which can be purchased e.g. form the company JERINI peptide technologies (Berlin, Germany).
as §1, with “CDK9/CycT1” for “CDK2/CycE”, “0.5 μg/ml.” for “130 ng/ml.”
as §2, with “HTRF” for “TR-FRET”

Series [7] concerns MOLM-13 human acute myeloid leukemia cells. Kind of series: Proliferation assay, MOLM-13 (Cell Titre-Glo, Method 3). The format is cell-based. The conditions noted are these: MOLM-13, 72-hour exposure, read-out: Inhibition of MOLM-13 cell proliferation IC50. How it is done: Non-adherent MOLM-13 human acute myeloid leukemia cells (DSMZ ACC 554) were seeded at a density of 5,000 cells/well in a 96-well multititer plate in 100 μL of growth medium supplemented 10% fetal calf serum. After 24 hours, cell viability of one plate (zero-point plate) was determined with the Cell Titre-Glo Luminescent Cell Viability Assay (Promega), while 50 μL of test compound containing medium was added to the wells of the other plates (final concentrations in the range of 0.001-10 μM and DMSO controls; the final concentration of the solvent dimethyl sulfoxide was 0.5%). Cell viability was assessed after 72-hour exposure with the Cell Titre-Glo Luminescent Cell Viability Assay (Promega).

The structures appear in SMILES notation. Like-named read-outs stand apart in the source and are kept apart here.

T1 sequence (P50750 whole entry): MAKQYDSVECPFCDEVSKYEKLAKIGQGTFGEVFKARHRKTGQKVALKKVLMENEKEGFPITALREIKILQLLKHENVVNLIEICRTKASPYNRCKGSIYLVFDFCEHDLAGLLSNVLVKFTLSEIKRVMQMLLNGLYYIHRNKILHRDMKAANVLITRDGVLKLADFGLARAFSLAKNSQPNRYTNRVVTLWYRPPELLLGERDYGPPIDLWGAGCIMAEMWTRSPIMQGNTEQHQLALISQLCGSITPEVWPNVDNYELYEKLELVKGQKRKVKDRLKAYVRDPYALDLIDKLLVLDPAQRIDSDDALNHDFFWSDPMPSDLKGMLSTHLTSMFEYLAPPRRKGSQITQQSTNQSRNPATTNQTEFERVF
T1 sequence (O60563 whole entry partner): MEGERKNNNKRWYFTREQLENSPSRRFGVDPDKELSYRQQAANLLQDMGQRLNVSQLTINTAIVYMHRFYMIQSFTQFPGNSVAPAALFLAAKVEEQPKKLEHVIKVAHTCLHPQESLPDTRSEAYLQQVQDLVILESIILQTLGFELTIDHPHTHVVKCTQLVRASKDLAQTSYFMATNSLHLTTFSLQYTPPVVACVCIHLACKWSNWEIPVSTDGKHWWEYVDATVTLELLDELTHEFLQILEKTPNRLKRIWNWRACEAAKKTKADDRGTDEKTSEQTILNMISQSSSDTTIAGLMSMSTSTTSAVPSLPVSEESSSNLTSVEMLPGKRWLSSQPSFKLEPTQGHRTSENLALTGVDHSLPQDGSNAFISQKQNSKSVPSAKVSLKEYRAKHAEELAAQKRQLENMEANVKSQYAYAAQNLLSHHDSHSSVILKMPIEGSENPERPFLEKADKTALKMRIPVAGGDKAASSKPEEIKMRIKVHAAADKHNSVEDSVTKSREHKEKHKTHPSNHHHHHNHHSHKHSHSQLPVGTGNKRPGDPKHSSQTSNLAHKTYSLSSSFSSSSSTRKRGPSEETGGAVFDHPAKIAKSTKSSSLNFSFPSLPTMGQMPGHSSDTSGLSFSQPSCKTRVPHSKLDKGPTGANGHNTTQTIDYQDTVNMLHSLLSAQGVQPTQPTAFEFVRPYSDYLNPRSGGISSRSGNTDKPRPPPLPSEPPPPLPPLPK

As for `CS(=O)(Cc1cc(Cl)cc(Nc2ncc(F)c(-c3ccc(F)cc3F)n2)c1)=NC#N` (racemic) [Example 14, (rac)-[(3-Chloro-5-{[4-(2,4-difluorophenyl)-5-fluoropyrimidin-2-yl]amino}benzyl)(methyl)oxido-λ^6-sulfanylidene]cyanamide], the IC50 in series [1] was found to be 530 nM; in series [2] (Homo sapiens, 96 h) it was 1020 nM; in series [3] (Homo sapiens, A2780, 96 h), 540 nM. The “maximal calculated oral bioavailability (Fmax) based on stability data in rat Hepatocytes” value in series [4] was 75%.

For `CS(=O)(Cc1cc(Nc2ncc(F)c(-c3ccc(F)cc3F)n2)cc(S(F)(F)(F)(F)F)c1)=NC#N` (single isomer, unassigned) [Example 29, {[3-{[4-(2,4-Difluorophenyl)-5-fluoropyrimidin-2-yl]amino}-5-(pentafluoro-λ^6-sulfanyl)benzyl](methyl)oxido-λ^6-sulfanylidene}cyanamide], the IC50 in series [5] was 5 nM; in series [1] it was 940 nM; in series [6] it was 8 nM; in series [2], 178 nM; in series [3] (Homo sapiens, A2780, 96 h), 96 nM; in series [7] (Homo sapiens, MOLM-13, 72 h), 92 nM. For the same molecule, the “Selectivity CDK9/CDK2” value in series [5] came to 198.

Turning to `CS(=N)(=O)Cc1cc(Nc2ncc(F)c(-c3ccc(F)cc3F)n2)cc(S(F)(F)(F)(F)F)c1` (single isomer, unassigned) [Example 31, 4-(2,4-Difluorophenyl)-5-fluoro-N-{3-[(S-methylsulfonimidoyl)methyl]-5-(pentafluoro-λ^6-sulfanyl)phenyl}pyrimidin-2-amine], the IC50 in series [5] came out at 54 nM; in series [1] it was 890 nM; in series [6], 7 nM; in series [2] (Homo sapiens, 96 h) it was 501 nM; in series [3] (Homo sapiens, A2780, 96 h), 279 nM; in series [7] (Homo sapiens, MOLM-13, 72 h), 281 nM. Moreover, the “Selectivity CDK9/CDK2” value in series [5] is given as 16.

As to `CS(=O)(Cc1cc(Nc2ncc(F)c(-c3ccc(F)cc3F)n2)cc(S(F)(F)(F)(F)F)c1)=NC#N` (single isomer, unassigned) [Example 30, {[3-{[4-(2,4-Difluorophenyl)-5-fluoropyrimidin-2-yl]amino}-5-(pentafluoro-λ^6-sulfanyl)benzyl](methyl)oxido-λ^6-sulfanylidene}cyanamide], the IC50 came to 4 nM in series [5]; 1500 nM in series [1]; 9 nM in series [6]; 359 nM in series [2]; 167 nM in series [3]; 141 nM in series [7]. Moreover, in series [5], the “Selectivity CDK9/CDK2” value stood at 360.

Consider `CS(=O)(Cc1cc(Nc2ncc(F)c(-c3ccc(F)cc3F)n2)cc(C(F)(F)F)c1)=NC(N)=O` (single isomer, unassigned) [Example 24, 1-{[3-{[4-(2,4-Difluorophenyl)-5-fluoropyrimidin-2-yl]amino}-5-(trifluoromethyl)benzyl](methyl)oxido-λ^6-sulfanylidene}urea], for which the IC50 in series [5] turned out to be 10 nM; in series [1], 670 nM; in series [6], 199 nM; in series [2] it was 910 nM; in series [3], 320 nM. The “Selectivity CDK9/CDK2” value in series [5] is given as 66. In series [4], the “maximal calculated oral bioavailability (Fmax) based on stability data in rat Hepatocytes” value is 82%.
